According to ChEMBL document CHEMBL4507323, “Data for DCP probe Ogerin” (2021):

Experiments:
[1] = target: Alpha-1A adrenergic receptor (Homo sapiens) (UniProt P35348); conditions: Compound concentration 10.0 uM
[2] = target: Sodium-dependent dopamine transporter (Homo sapiens) (UniProt Q01959); conditions: Compound concentration 10.0 uM
[3] = target: 5-hydroxytryptamine receptor 2C (Homo sapiens) (UniProt P28335); conditions: Compound concentration 10.0 uM
[4] = target: Mu-type opioid receptor (Homo sapiens) (UniProt P35372); conditions: Compound concentration 10.0 uM
[5] = target: T1, GABA-A receptor; anion channel (Rattus norvegicus) (UniProt O09028+P15431+P18506+P18508+P19969+P20236+P23574+P23576+P28471+P28473+P30191+P62813+P63079+P63138+Q91ZM7+Q9ES14); conditions: Compound concentration 10.0 uM
[6] = target: Kappa-type opioid receptor (Homo sapiens) (UniProt P41145); conditions: Compound concentration 10.0 uM
[7] = FLIPR-TETRA assay
[8] = target: Beta-2 adrenergic receptor (Homo sapiens) (UniProt P07550); conditions: Compound concentration 10.0 uM
Beta-2 adrenergic receptor (Homo sapiens), sequence (P07550 whole entry, looked up): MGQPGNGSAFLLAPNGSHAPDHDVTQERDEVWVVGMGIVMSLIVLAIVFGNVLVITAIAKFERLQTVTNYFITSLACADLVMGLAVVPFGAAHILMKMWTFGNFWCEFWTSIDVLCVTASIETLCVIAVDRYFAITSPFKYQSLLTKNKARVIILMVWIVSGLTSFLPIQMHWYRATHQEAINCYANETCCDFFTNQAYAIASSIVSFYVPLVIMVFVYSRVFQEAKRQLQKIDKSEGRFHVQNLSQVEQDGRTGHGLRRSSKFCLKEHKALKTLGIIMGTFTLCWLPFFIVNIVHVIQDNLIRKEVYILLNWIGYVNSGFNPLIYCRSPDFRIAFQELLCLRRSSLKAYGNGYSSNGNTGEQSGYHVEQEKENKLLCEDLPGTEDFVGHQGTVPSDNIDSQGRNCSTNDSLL

[9] = target: Alpha-1D adrenergic receptor (Homo sapiens) (UniProt P25100); conditions: Compound concentration 10.0 uM
Alpha-1D adrenergic receptor (Homo sapiens), sequence (P25100 whole entry): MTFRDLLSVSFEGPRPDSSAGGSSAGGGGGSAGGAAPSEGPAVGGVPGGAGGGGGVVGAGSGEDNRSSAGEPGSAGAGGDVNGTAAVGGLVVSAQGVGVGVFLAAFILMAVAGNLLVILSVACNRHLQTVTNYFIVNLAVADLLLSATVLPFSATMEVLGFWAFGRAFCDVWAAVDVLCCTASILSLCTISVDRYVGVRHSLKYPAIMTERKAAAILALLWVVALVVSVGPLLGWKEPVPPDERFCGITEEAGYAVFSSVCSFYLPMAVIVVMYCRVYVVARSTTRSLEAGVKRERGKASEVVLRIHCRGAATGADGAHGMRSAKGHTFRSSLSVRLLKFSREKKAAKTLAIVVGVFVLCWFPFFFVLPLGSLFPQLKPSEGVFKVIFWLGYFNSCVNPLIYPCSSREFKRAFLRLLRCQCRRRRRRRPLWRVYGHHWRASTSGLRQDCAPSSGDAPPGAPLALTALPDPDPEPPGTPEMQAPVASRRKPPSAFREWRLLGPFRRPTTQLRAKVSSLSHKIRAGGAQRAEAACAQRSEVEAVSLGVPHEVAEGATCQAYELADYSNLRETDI

[10] = target: 5-hydroxytryptamine receptor 1B (Homo sapiens) (UniProt P28222); conditions: Compound concentration 10.0 uM
[11] = target: D(1B) dopamine receptor (Homo sapiens) (UniProt P21918); conditions: Compound concentration 10.0 uM
[12] = target: T2, 5-hydroxytryptamine receptor 2B (Homo sapiens, UniProt P41595); conditions: Compound concentration 10.0 uM
T2 sequence (P41595 whole entry): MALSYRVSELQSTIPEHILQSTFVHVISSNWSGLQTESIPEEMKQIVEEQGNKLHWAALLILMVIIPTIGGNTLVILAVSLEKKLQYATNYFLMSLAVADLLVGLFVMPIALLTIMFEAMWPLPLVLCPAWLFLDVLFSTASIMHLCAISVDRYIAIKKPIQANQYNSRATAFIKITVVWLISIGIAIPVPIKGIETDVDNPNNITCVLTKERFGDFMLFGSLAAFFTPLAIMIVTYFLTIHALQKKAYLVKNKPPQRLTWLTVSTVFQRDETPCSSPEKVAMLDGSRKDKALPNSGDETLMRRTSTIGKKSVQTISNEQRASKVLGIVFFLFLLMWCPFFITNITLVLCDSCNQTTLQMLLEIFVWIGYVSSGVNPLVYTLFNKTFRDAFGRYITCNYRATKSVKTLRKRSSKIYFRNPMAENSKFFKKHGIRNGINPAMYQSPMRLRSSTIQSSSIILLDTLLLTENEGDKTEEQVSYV

[13] = target: Sodium-dependent serotonin transporter (Homo sapiens) (UniProt P31645); conditions: Compound concentration 10.0 uM
[14] = target: D(2) dopamine receptor (Homo sapiens) (UniProt P14416); conditions: Compound concentration 10.0 uM
[15] = target: Beta-1 adrenergic receptor (Homo sapiens) (UniProt P08588); conditions: Compound concentration 10.0 uM
[16] = target: Sodium-dependent noradrenaline transporter (Homo sapiens) (UniProt P23975); conditions: Compound concentration 10.0 uM
[17] = target: Sigma non-opioid intracellular receptor 1 (Homo sapiens) (UniProt Q99720); conditions: Compound concentration 10.0 uM
[18] = target: T1, GABA-A receptor; anion channel (Rattus norvegicus); conditions: Compound concentration 10.0 uM; remark: listed apart in the source
[19] = target: 5-hydroxytryptamine receptor 5A (Homo sapiens) (UniProt P47898); conditions: Compound concentration 10.0 uM
5-hydroxytryptamine receptor 5A (Homo sapiens), sequence (P47898 whole entry): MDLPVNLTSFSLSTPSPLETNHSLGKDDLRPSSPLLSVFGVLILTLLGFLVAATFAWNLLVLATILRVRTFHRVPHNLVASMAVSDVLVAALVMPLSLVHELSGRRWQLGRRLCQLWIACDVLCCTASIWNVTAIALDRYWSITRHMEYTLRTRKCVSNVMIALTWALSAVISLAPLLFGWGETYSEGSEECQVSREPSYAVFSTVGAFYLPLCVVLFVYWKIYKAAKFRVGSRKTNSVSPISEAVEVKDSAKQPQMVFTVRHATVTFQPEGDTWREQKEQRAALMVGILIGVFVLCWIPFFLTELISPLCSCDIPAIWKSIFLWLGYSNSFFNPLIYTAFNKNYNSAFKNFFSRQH

[20] = target: D(3) dopamine receptor (Homo sapiens) (UniProt P35462); conditions: Compound concentration 10.0 uM
[21] = target: 5-hydroxytryptamine receptor 7 (Homo sapiens) (UniProt P34969); conditions: Compound concentration 10.0 uM
[22] = target: D(1A) dopamine receptor (Homo sapiens) (UniProt P21728); conditions: Compound concentration 10.0 uM
[23] = target: Histamine H3 receptor (Homo sapiens) (UniProt Q9Y5N1); conditions: Compound concentration 10.0 uM
Histamine H3 receptor (Homo sapiens), sequence (Q9Y5N1 whole entry): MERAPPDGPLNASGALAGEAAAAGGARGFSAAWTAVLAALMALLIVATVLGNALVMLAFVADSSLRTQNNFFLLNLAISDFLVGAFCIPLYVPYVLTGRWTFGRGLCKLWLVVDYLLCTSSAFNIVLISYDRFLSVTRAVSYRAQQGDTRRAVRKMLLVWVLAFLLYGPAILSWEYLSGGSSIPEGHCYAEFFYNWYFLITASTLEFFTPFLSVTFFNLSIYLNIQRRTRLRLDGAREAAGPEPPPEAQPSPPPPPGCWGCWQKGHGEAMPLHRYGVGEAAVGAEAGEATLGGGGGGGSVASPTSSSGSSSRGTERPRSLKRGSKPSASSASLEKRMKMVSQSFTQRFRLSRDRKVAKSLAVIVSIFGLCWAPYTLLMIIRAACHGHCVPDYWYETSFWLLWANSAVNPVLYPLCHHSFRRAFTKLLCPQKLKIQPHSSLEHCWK

[24] = target: D(4) dopamine receptor (Homo sapiens) (UniProt P21917); conditions: Compound concentration 10.0 uM
[25] = organism: Rattus norvegicus; conditions: Compound concentration 10.0 uM
[26] = target: 5-hydroxytryptamine receptor 1A (Homo sapiens) (UniProt P08908); conditions: Compound concentration 10.0 uM
5-hydroxytryptamine receptor 1A (Homo sapiens), sequence (P08908 whole entry): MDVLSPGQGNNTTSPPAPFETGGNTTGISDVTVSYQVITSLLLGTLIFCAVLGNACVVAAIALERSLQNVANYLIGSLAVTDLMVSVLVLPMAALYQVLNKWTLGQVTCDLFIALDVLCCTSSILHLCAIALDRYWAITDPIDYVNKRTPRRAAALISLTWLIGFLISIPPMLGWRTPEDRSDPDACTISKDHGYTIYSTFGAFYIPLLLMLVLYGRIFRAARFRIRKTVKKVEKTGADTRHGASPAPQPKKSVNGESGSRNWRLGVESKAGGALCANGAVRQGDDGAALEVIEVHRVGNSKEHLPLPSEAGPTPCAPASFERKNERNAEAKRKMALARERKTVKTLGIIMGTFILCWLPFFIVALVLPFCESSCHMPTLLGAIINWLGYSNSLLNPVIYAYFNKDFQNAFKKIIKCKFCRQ

[27] = target: Histamine H4 receptor (Homo sapiens) (UniProt Q9H3N8); conditions: Compound concentration 10.0 uM
[28] = target: 5-hydroxytryptamine receptor 6 (Homo sapiens) (UniProt P50406); conditions: Compound concentration 10.0 uM
5-hydroxytryptamine receptor 6 (Homo sapiens), sequence (P50406 whole entry): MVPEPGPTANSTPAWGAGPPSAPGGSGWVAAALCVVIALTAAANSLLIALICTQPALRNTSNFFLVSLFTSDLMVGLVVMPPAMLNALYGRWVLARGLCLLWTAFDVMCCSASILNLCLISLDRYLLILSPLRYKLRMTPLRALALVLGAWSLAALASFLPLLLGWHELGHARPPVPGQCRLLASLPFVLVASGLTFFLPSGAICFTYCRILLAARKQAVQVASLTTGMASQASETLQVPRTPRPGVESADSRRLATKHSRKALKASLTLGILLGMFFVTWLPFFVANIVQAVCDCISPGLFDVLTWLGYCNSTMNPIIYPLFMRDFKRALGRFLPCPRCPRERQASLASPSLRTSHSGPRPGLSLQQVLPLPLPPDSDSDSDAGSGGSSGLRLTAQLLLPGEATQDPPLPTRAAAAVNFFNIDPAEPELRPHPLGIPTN

[29] = target: Muscarinic acetylcholine receptor M2 (Homo sapiens) (UniProt P08172); conditions: Compound concentration 10.0 uM
[30] = target: Beta-3 adrenergic receptor (Homo sapiens) (UniProt P13945); conditions: Compound concentration 10.0 uM
Beta-3 adrenergic receptor (Homo sapiens), sequence (P13945 whole entry, looked up): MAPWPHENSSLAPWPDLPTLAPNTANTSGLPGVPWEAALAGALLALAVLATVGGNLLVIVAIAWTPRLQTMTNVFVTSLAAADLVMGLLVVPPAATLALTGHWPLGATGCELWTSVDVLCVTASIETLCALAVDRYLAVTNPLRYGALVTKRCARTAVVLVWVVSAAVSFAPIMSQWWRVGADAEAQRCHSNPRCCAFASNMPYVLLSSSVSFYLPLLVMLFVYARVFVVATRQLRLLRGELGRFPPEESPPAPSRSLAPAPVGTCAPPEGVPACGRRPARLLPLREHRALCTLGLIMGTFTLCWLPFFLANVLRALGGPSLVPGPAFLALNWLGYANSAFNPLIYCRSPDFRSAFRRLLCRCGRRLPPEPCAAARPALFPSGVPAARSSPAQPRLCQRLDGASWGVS

[31] = target: 5-hydroxytryptamine receptor 1D (Homo sapiens) (UniProt P28221); conditions: Compound concentration 10.0 uM
[32] = target: 5-hydroxytryptamine receptor 2A (Homo sapiens) (UniProt P28223); conditions: Compound concentration 10.0 uM
[33] = target: Alpha-2B adrenergic receptor (Homo sapiens) (UniProt P18089); conditions: Compound concentration 10.0 uM
[34] = target: Muscarinic acetylcholine receptor M4 (Homo sapiens) (UniProt P08173); conditions: Compound concentration 10.0 uM
Muscarinic acetylcholine receptor M4 (Homo sapiens), sequence (P08173 whole entry): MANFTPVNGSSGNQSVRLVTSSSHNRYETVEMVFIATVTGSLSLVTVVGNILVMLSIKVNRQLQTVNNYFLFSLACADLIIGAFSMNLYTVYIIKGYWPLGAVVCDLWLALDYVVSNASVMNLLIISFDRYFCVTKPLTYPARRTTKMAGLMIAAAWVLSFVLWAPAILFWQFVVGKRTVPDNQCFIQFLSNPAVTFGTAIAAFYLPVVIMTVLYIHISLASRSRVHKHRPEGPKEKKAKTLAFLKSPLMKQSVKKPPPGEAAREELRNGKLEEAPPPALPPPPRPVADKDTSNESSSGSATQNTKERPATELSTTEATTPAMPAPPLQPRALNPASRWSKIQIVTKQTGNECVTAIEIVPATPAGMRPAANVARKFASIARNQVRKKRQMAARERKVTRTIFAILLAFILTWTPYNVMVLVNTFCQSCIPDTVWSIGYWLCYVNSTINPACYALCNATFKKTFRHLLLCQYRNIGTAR

[35] = target: Muscarinic acetylcholine receptor M3 (Homo sapiens) (UniProt P20309); conditions: Compound concentration 10.0 uM
[36] = target: Alpha-2C adrenergic receptor (Homo sapiens) (UniProt P18825); conditions: Compound concentration 10.0 uM
[37] = target: Alpha-2A adrenergic receptor (Homo sapiens) (UniProt P08913); conditions: Compound concentration 10.0 uM
[38] = target: Delta-type opioid receptor (Homo sapiens) (UniProt P41143); conditions: Compound concentration 10.0 uM
Delta-type opioid receptor (Homo sapiens), sequence (P41143 whole entry): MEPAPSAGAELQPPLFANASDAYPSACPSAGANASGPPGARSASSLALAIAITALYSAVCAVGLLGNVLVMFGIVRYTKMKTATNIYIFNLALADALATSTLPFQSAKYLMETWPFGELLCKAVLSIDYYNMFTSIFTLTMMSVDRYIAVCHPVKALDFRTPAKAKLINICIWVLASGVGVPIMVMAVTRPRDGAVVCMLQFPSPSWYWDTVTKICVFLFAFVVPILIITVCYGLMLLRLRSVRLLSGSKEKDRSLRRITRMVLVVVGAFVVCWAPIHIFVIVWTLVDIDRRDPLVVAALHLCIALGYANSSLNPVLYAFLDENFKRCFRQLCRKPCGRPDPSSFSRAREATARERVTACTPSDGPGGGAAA

[39] = target: T2, 5-hydroxytryptamine receptor 2B; test: GPCRScan assay: inhibition of 5-HT2B; set-up: radioligand conc. used [nm] 1.0 – 2.0, parental cells stable HEK
[40] = target: 5-hydroxytryptamine receptor 3A (Homo sapiens) (UniProt P46098); conditions: Compound concentration 10.0 uM
[41] = target: Muscarinic acetylcholine receptor M1 (Homo sapiens) (UniProt P11229); conditions: Compound concentration 10.0 uM
Muscarinic acetylcholine receptor M1 (Homo sapiens), sequence (P11229 whole entry): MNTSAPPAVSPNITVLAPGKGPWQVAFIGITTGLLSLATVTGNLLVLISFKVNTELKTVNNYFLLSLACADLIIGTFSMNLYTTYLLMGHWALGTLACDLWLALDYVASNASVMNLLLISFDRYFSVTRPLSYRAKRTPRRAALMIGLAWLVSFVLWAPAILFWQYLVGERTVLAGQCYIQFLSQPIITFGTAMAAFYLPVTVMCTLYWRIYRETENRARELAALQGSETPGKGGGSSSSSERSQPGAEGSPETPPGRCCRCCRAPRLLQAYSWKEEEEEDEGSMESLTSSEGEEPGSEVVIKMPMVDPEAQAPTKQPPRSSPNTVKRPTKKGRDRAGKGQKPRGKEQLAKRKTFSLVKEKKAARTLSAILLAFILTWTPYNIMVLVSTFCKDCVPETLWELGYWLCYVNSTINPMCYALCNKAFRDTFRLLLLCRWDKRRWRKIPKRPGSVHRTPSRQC

[42] = target: Histamine H1 receptor (Homo sapiens) (UniProt P35367); conditions: Compound concentration 10.0 uM
[43] = target: Alpha-1B adrenergic receptor (Homo sapiens) (UniProt P35368); conditions: Compound concentration 10.0 uM
[44] = target: 5-hydroxytryptamine receptor 1A (Homo sapiens, UniProt P08908); test: GPCRScan assay: inhibition of 5-HT1A; set-up: radioligand conc. used [nm] 0.5 – 1.0, parental cells stable CHO
5-hydroxytryptamine receptor 1A, sequence (P08908 whole entry): as the sequence (P08908 whole entry) above

[45] = target: Muscarinic acetylcholine receptor M5 (Homo sapiens) (UniProt P08912); conditions: Compound concentration 10.0 uM
[46] = target: Sigma intracellular receptor 2 (Homo sapiens) (UniProt Q5BJF2); conditions: Compound concentration 10.0 uM
[47] = target: Histamine H2 receptor (Homo sapiens) (UniProt P25021); conditions: Compound concentration 10.0 uM

Nc1nc(NCc2ccccc2)nc(-c2ccccc2CO)n1 [Ogerin]
inhibition [1]: 25.5%
inhibition [2]: 18.1%
inhibition [3]: 9.32%
inhibition [4]: 11.9%
inhibition [5]: 32.9%
inhibition [6]: 30.2%
pEC50 [7]: 6.83
inhibition [8]: 20.7%
inhibition [9]: 4.63%
inhibition [10]: 7.41%
inhibition [11]: 43.9%
inhibition [12]: 81%
inhibition [13]: 4.96%
inhibition [14]: 10%
inhibition [15]: 25.5%
inhibition [16]: 32.1%
inhibition [17]: -0.41%
inhibition [18]: 19.7%
inhibition [19]: 10.6%
inhibition [20]: 18.9%
inhibition [21]: 43.9%
inhibition [22]: 33.7%
inhibition [23]: -1.93%
inhibition [24]: 4.35%
inhibition [25]: 12.9%
inhibition [26]: 9.7%
inhibition [27]: 8.3%
inhibition [28]: 19.4%
inhibition [29]: 23.2%
inhibition [30]: 14.8%
inhibition [31]: 11.2%
inhibition [32]: 2.78%
inhibition [33]: 43.9%
inhibition [34]: -9.42%
inhibition [35]: 36%
inhibition [36]: 0.87%
inhibition [37]: 24.4%
inhibition [38]: 12.5%
Ki ([39]; read-out: Ki): 496 nM
Ki ([39]; read-out: pKi (converted)): 490 nM
inhibition [40]: 2.24%
inhibition [41]: 23.6%
inhibition [42]: -4.07%

Nc1nc(NCc2ccccc2)nc(-c2cccc(CO)c2)n1 [ZINC32547799]
inhibition [1]: 5.91%
inhibition [2]: -9.76%
inhibition [3]: 3.72%
inhibition [4]: 8.68%
inhibition [43]: 5.01%
inhibition [5]: 18.3%
inhibition [6]: 10.8%
inhibition [8]: 18%
inhibition [9]: -8.75%
inhibition [10]: -2.86%
inhibition [12]: 41.8%
inhibition [13]: 9.44%
inhibition [14]: -7.4%
inhibition [15]: -3.07%
inhibition [16]: 43.6%
inhibition [17]: 0.95%
Ki ([44]; read-out: Ki): 850 nM
Ki ([44]; read-out: pKi (converted)): 832 nM
inhibition [19]: 0.66%
inhibition [20]: 8.38%
inhibition [21]: 15.9%
inhibition [22]: 3.99%
inhibition [23]: 6.14%
inhibition [45]: 12.8%
inhibition [24]: 24.4%
inhibition [25]: 8.6%
inhibition [26]: 65.5%
inhibition [27]: -9.05%
inhibition [46]: 12.3%
inhibition [28]: 26.7%
inhibition [29]: 10.8%
inhibition [30]: 17.8%
inhibition [31]: 13.7%
inhibition [47]: 4.01%
inhibition [32]: 1.28%
inhibition [33]: 21.8%
inhibition [34]: 21.6%
inhibition [35]: 18.3%
inhibition [36]: 1.4%
inhibition [37]: 7.24%
inhibition [38]: 9.2%
inhibition [40]: 37.2%
inhibition [41]: 35.2%
inhibition [42]: -5.64%
